{"source": "patent US20230295285A1", "about": "“METHODS OF REVERSING CACHEXIA AND PROLONGING SURVIVAL COMPRISING ADMINISTERING A GDF15 MODULATOR AND AN ANTI-CANCER AGENT” (AVEO Pharmaceuticals, Inc., priority 2014, published 2023)", "assay_type_in_all_cases": "in vivo", "key": {"GDF15 [1]": {"molecular_target": "T1, GDF15 (Mus musculus, UniProt Q9Z0J7)", "T1 construct": "Naive non-tumor-bearing, 8-week old, female, ICR-Scid mice; from tissue; host or cells: whole animal: ICR-Scid mice (endogenous circulating GDF15)", "T1 sequence (Q9Z0J7 189-303)": "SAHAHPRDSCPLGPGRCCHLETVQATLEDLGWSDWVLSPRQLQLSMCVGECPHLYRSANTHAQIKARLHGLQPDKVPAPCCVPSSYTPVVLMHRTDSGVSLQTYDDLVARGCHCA", "settings": "ICR-Scid mice", "protocol": "Naive non-tumor-bearing, 8-week old, female, ICR-Scid mice were treated with carboplatin (60 mpk) by intra-peritoneal injection on Day 0 and Day 3 of this experiment. On Day 2, after mice experience 8% body weight loss, mice were randomized into two groups of ten mice each. One group received carboplatin (60 mpk) plus (1) vehicle or carboplatin (60 mpk) plus (2) rabbit monoclonal antibody raised against murine anti-GDF15 antibody, R-23 (20 mpk) by intra-peritoneal injection on Day 2 and Day 4. In the absence of GDF15 inhibition, 80% of the mice died due to cachexia caused by the carboplatin agent over a period of 8 days."}, "GDF15 [2]": {"molecular_target": "T1, GDF15", "settings": "non-tumor-bearing ICR-Scid mice; cisplatin 3 mpk i.p. twice a week + vehicle; over 9 days", "protocol": "Naive non-tumor-bearing, 8-week old, female, ICR-Scid mice were treated with cisplatin (3 mpk) twice a week by intra-peritoneal injection. Body weight was measured daily. After 2 doses of cisplatin (day 0 of the experiment) mice were randomized into two groups of ten mice each. One group received cisplatin 3 mpk plus (1) vehicle; or cisplatin 3 mpk with (2) rabbit monoclonal antibody raised against murine anti-GDF15 antibody, R-23 twice a week (20 mpk) by intra-peritoneal injection. In the absence of GDF15 inhibition, 80% of the mice die due to cachexia caused by the cisplatin agent over a period of 9 days."}, "GDF15 [3]": {"molecular_target": "T1, GDF15", "settings": "ICR-Scid mice", "protocol": "Naive non-tumor-bearing, 8-week old, female, ICR-Scid mice were treated daily with oxaliplatin (3 mpk) by intra-peritoneal injection. On Day 3, after mice experience 8% body weight loss, mice were randomized into two groups of ten mice each. One group received oxaliplatin (3 mpk) plus (1) vehicle; or oxaliplatin (3 mpk) plus (2) rabbit monoclonal antibody raised against murine anti-GDF15 antibody, R-23 (20 mpk). Antibody or vehicle was dosed on Day 3, 5, 7, 9 by intra-peritoneal injection. In the absence of GDF15 inhibition, 45% of the mice die due to cachexia caused by the oxaliplatin agent over a period of 10 days.", "remark": "listed apart in the source"}, "GDF15 [4]": {"system": "GDF15", "assay": "Survival and cachexia in mice bearing LNCaP prostate xenograft, anti-GDF15 antibody plus tivozanib", "settings": "LNCaP xenograft NCR Nude mice", "protocol": "LNCaP cells were grown in culture at 37° C. in an atmosphere containing 5% CO2, using RPMI-1640 Medium (ATCC® 30-2001™) containing 10% FBS. Cells were inoculated subcutaneously into the flank of 8-week old female NCR Nude mice with 5×10^6 cells per mouse in 50% matrigel. When tumor size reached 500 mm^3, the mice were randomized into three groups of ten mice each. Each group received one of the following treatments: (1) murine immunoglobulin G (20 mpk) and vehicle (Control); (2) murine anti-GDF15 antibody 14F11 (20 mpk) and tivozanib (5 mpk); or (3) murine immunoglobulin G (20 mpk) and tivozanib (5 mpk). Antibodies were administered every 3 days by intra-peritoneal injection, tivozanib and vehicle control was administered daily by oral gavage. Body weight and tumor size were measured daily. Mice were evaluated daily and if any of the following criteria were achieved, animals were sacrificed: a) tumor size larger than 2,000 mm^3; b) body weight loss greater than 20%; c) moribund.\nIn the absence of GDF15 inhibition, 70% of the mice die due to cachexia over a period of 30 days, even in the presence of anti-cancer treatment."}}, "note": "Where two headings read alike, the source gives them in different places."}
{"molecule": "N.N.O=C([O-])C1(C(=O)[O-])CCC1.[Pt+2]", "note": "[carboplatin]", "values": [{"measurement": "mice died due to cachexia caused by carboplatin", "setting": "GDF15 [1]; carboplatin 60 mpk i.p. Day 0 and Day 3 + vehicle, over 8 days", "result": 80, "unit": "%"}, {"measurement": "body weight loss", "setting": "GDF15 [1]; carboplatin 60 mpk i.p., on Day 2, before randomization", "result": 8, "unit": "%"}]}
{"molecule": "N.N.[Cl][Pt][Cl]", "note": "[cisplatin]", "values": [{"measurement": "mice die due to cachexia caused by cisplatin", "setting": "GDF15 [2]", "result": 80, "unit": "%"}]}
{"molecule": "O=C1[O][Pt]2([NH][C@@H]3CCCC[C@H]3[NH]2)[O]C1=O", "note": "[oxaliplatin]", "values": [{"measurement": "mice die due to cachexia caused by oxaliplatin", "setting": "GDF15 [3]; oxaliplatin 3 mpk i.p. daily + vehicle, over 10 days", "result": 45, "unit": "%"}, {"measurement": "body weight loss", "setting": "GDF15 [3]; oxaliplatin 3 mpk i.p. daily, on Day 3, before randomization", "result": 8, "unit": "%"}]}
{"molecule": "COc1cc2nccc(Oc3ccc(NC(=O)Nc4cc(C)on4)c(Cl)c3)c2cc1OC", "note": "[tivozanib]", "values": [{"measurement": "effect on tumor growth", "setting": "GDF15 [4]; tivozanib 5 mpk daily oral", "result": "slows down tumor growth"}, {"measurement": "mice die due to cachexia", "setting": "GDF15 [4]; tivozanib 5 mpk daily oral gavage + murine IgG 20 mpk, absence of GDF15 inhibition, over 30 days", "result": 70, "unit": "%"}]}
{"molecule": "14F11: murine anti-GDF15 antibody; light chain SEQ ID NO: 34, heavy chain SEQ ID NO: 53 (antibody) heavy: QVTLKESGPGILQPSQTLSLTCSFSGFSLSTYGMGVGWIRQPSGKGLEWLADIWWDDDKYYNPSLKSRLTISKDTSSNEVFLKIAIVDTADTATYYCARRGHYSAMDYWGQGTSVTVSSAKTTPPSVYPLAPGSAAQTNSMVTLGCLVKGYFPEPVTVTWNSGSLSSGVHTFPAVLQSDLYTLSSSVTVPSSTWPSETVTCNVAHPASSTKVDKKIVPRDCGCKPCICTVPEVSSVFIFPPKPKDVLTITLTPKVTCVVVDISKDDPEVQFSWFVDDVEVHTAQTQPREEQFNSTFRSVSELPIMHQDWLNGKEFKCRVNSAAFPAPIEKTISKTKGRPKAPQVYTIPPPKEQMAKDKVSLTCMITDFFPEDITVEWQWNGQPAENYKNTQPIMDTDGSYFVYSKLNVQKSNWEAGNTFTCSVLHEGLHNHHTEKSLSHSPGK light: DIVMTQSQKFMSTSVGDRVSVTCKASQNVGTNVAWYQQKPGQSPKALIYSPSYRYSGVPDRFTGSGSGTDFTLTISNVQSEDLAEYFCQQYNSYPHTFGGGTKLEMKRADAAPTVSIFPPSSEQLTSGGASVVCFLNNFYPKDINVKWKIDGSERQNGVLNSWTDQDSKDSTYSMSSTLTLTKDEYERHNSYTCEATHKTSTSPIVKSFNRNEC", "values": [{"measurement": "anti-tumor effect", "setting": "GDF15 [4]; 14F11 20 mpk + tivozanib 5 mpk, 30 day period", "result": "effective anti-tumor treatment"}, {"measurement": "effect on cachexia", "setting": "GDF15 [4]; 14F11 20 mpk + tivozanib 5 mpk, 30 days", "result": "reverses cachexia"}, {"measurement": "sustained survival", "setting": "GDF15 [4]; 14F11 20 mpk i.p. every 3 days + tivozanib 5 mpk daily oral, over 30 day period, FIG. 1", "result": 100, "unit": "%"}]}
